Three substances from patent US20060228417A1, “Mucoadhesive composition comprising polyacrylate and chemoattractant” (priority 2003, published 2006) can be followed below.

Where no end group is shown, it is not given here.

The subject of assay [1] is DC in organotypic cultures of HPV-transformed keratinocytes (SiHa cell line). As to the kind of experiment: DC infiltration into organotypic cultures of HPV-transformed keratinocytes (CD1a labeled surface). Format: cell-based, human. As to conditions: 800 U/ml GM-CSF, 48 h. An excerpt:
(§1) DC were generated from the adherent fraction of human PBMC (Peripheral Blood Mononuclear Cells) with 800 U/ml GM-CSF (Novartis, Brussels) and 20 U/ml IL-4 (Biosource Europe, Nivelles, Belgium), as previously described (16). DC generated for this study constituted a 90% pure cell population based on several criteria including morphology, forward-scatter and side-scatter values observed by FACS (Fluorescence Activated Cell Sorter) analysis and surface phenotype (CD1a+, CD14−, CD4+, CD54+, . . . ).
The DC were labeled with a lipophilic fluorescent marker (CM-DiL, Molecular Probes, Leiden, The Netherlands) according to a previously described procedure with minor modifications. Briefly, 4×106 DC were resuspended in 1 ml of PBS and heated to 37° C. […]
(§2) The density of DC migrating into the epithelial layer was assessed by the avidin-biotin-peroxidase technique (Vectastain ABC kit, Vector laboratories, Burlingame, Calif.) with an anti-CD1a monoclonal antibody (clone NA1/34 from Dako, Glostrup, Denmark). […] The DC infiltration in organotypic cultures was evaluated by measuring the surface of immunostained cells with a computerized system of image analysis (CAS, Becton Dickinson, Erembodegem, Belgium) following a method previously described (6). The entire surface of each culture section was analyzed and 5 sections of each culture were stained with anti-CD1a. […]

Assay [2] concerns human DC in xenografts of HPV-transformed keratinocytes (CasKi cell line). As to the kind of experiment: Xenograft assay in NOD/SCID mice: DC recruitment into transplants of HPV-transformed keratinocytes. Format: in vivo. On the procedure:
HPV-transformed keratinocytes (2×10^5, CasKi cell line, ATCC, CRL-1550) were plated on collagen gel (2 mg/ml of type I collagen isolated from rat tail tendons) inserted in Teflon rings (Renner, Dannstadt, Germany) and maintained in culture for one day before transplantation onto mice. Twelve-week-old NOD-scid/scid mice were used for this study. They were housed under sterile conditions and water and feed were provided ad libitum. Before transplantation, the cells were washed and the medium was drained. […] Fluorescent DC were counted in the epithelium and, after anti-keratin immunolabeling, the epithelial surface was evaluated with a computerized system of image analysis (CAS, Becton Dickinson, Erembodegem, Belgium). Infiltration results were expressed as numbers of DC per mm^2 of epithelium. […]
Graft cryosections (5 μm in thickness) were fixed in acetone at −20° C. and in 80% methanol at 4° C. […] After washes in PBS, coverslips were mounted and labeling was analysed under an microscope equipped with epifluorescence optics.
A control group of mice was treated with PBS alone. […] The DC infiltration in transplants was assessed by looking for stained DC in histological sections. […] Quantitative analysis of DC infiltration was performed by determining the number of DC per mm2 of epithelial tissue.

The subject of assay [3] is DC in organotypic cultures of HPV-transformed keratinocytes. As to the kind of experiment: DC infiltration depth in organotypic cultures of HPV-transformed keratinocytes. It counts as cell-based, human. Conditions: 48 hours after chemoattractant addition; GM-CSF 800 U/ml, MCP-1 500 ng/ml, HNP2 750 ng/ml (FIG. 6A).
From the text: as §1
Organotypic cultures of HPV-transformed keratinocytes (SiHa cell line (10)) were prepared as previously reported (17). After a 2 week stratification of keratinocytes, labeled DC were seeded on top of the in vitro formed epithelium at a concentration of 2×10^5 cells/50 μl of culture medium. The organotypic culture was then placed on the polycarbophil gel containing or not 800 U/ml of GM-CSF. In order to maintain the culture, the polycarbophil gel (1.5 w/w) was prepared by dispersing the Noveon AA1 in keratinocyte growth medium. […]
as §2, with “anti-CD1a. The positive surface was expressed as the percentage of the total surface analyzed. In additional experiments, the LC/DC infiltration depth in the organotypic culturs was evaluated by measuring the distance between the top of the epithelium and individual DC with a computerized system of image analysis (CAS, Becton Dikinson, Erembodegem, Belgium). We then calculated the ratio between the infiltration depth and the thickness of the culture.” for “anti-CD1a.”

For “granulocyte macrophage—colony stimulating factor [GM-CSF]”, the “DC infiltration, CD1a labeled surface” value in assay [1] (mean ± SD (n=5)) is 28.33±8.11 % of CD1a labeled surface. Moreover, the “density of fluorescent-labeled DC within the epithelial sheet” value in assay [1] (versus absence of GM-CSF (FIG. 4)) was “significant increase in the density of DC”. Besides, in assay [2] (GM-CSF applied in transplantation chamber versus control mice (FIG. 5)), the “recruitment of DC in the tumor grafts” value was “significant (p<0.001) recruitment of DC”. In assay [2] (NOD-SCID mice, 200 μl injected twice into transplantation chamber, 4×10^5 U/ml or U/g, mean ± SD (n=5)), the “DC infiltration in the grafts, number of DC per mm2 of epithelial tissue” value stood at 16.6±14.6 DC/mm2. For the same substance, in assay [3], the “DC infiltration depth in organotypic culture” value (from here on “DC infiltration depth”) was “significant increase in the density of DC observed in the epithelial layer”.

For “Human Neutrophil Peptide-2 (CYCRIPACIAGERRYGTCIYQGRLWAFCC; ends and bridges not checked; cysteine pairing not given here; UniProt P59665 66-94, looked up) [HNP2, human neutrophil defensin 2, Sigma-Aldrich]”, the “DC infiltration depth” value in assay [3] is given as “reached an infiltration level equivalent to that obtained with GM-CSF”.

As to Monocyte Chemotactic Protein 1 [MCP1], the “DC infiltration depth” value in assay [3] was “reached an infiltration level equivalent to that obtained with GM-CSF”.
